The subject of one data set is RAW264.7. In words: Antiinflammatory activity against mouse RAW264.7 cells assessed as inhibition of LPS-induced NO production after 24 hrs by Griess method. In kind it is functional, cell-based. The conditions noted are these: RAW264.7, 24 h. For orientation: Griess reagent forms a coloured azo dye with nitrite.
Usually IC50 stands for the midpoint of a concentration-inhibition curve. For `C[C@@H]1CC[C@H]2C(C)(C)CCC[C@]2(C)[C@@]12CC/C(=C\C=O)O2`, the IC50 worked out at 41.8 µM.

As to `CC(C)(O)c1ccc2c(c1)CC[C@H]1C(C)(C)[C@@H](O)CC[C@]21C`, the IC50 is greater than 50 µM.

Turning to `COc1ccc(-c2oc3cc(OC)c(OC)c(O)c3c(=O)c2OC)cc1O` [CASTICIN], the IC50 turned out to be 21.4 µM.

As for `COc1cc([C@H]2Oc3c(OC)cc(CCCO)cc3[C@@H]2CO)ccc1O` [DIHYDRODEHYDRODICONIFERY ALCOHOL], the IC50 came out at 38.7 µM.

For `COc1cc(C[C@H]2CO[C@H](c3ccc(O)c(OC)c3)[C@H]2CO)ccc1O` [LARICIRESINOL], the IC50 was greater than 50 µM.

As to `CC(=O)O[C@@H]1C[C@@H](C)[C@](O)(CCC2=CC(=O)OC2O)[C@@]2(C)CCCC(C)(C)[C@H]12` (some centres undefined) [VITEAGNUSIN I], the IC50 was found to be 11.3 µM.

For the compound `CC(=O)O[C@H]1CC[C@@]2(C)[C@@H](CC[C@@H](C)[C@]23CCC(=O)O3)C1(C)C` [VITEDOIN B], the IC50 is greater than 50 µM.

Consider `C=CC(C)(O)CC[C@@]1(C)C2=C([C@H](OC(C)=O)[C@H](OC(C)=O)[C@H]1C)C(C)(C)CCC2` (some centres undefined) [VITETRIFOLIN D], for which the IC50 was found to be 24.5 µM.

Regarding `CC(=O)O[C@@H]1C[C@@H](C)[C@](O)(CCC2=CC(=O)OC2)[C@@]2(C)CCCC(C)(C)[C@H]12` [VITEXILACTONE], the IC50 turned out to be 42.5 µM.

Tested on in the next data set: not listed separately
In words: Cytotoxicity against mouse RAW264.7 cells assessed as cell viability by colorimetric method relative to control. In kind it is cell-based. Set-up: concentration or dose not given beside the values. To be noted: read-out: Activity.
For the compound `C[C@@H]1CC[C@H]2C(C)(C)CCC[C@]2(C)[C@@]12CC/C(=C\C=O)O2`, the viability was greater than 90%.

Consider `CC(C)(O)c1ccc2c(c1)CC[C@H]1C(C)(C)[C@@H](O)CC[C@]21C`, for which the viability is greater than 90%.

With `COc1ccc(-c2oc3cc(OC)c(OC)c(O)c3c(=O)c2OC)cc1O` [CASTICIN], the viability was greater than 90%.

Turning to `COc1cc([C@H]2Oc3c(OC)cc(CCCO)cc3[C@@H]2CO)ccc1O` [DIHYDRODEHYDRODICONIFERY ALCOHOL], the viability was greater than 90%.

For `COc1cc(C[C@H]2CO[C@H](c3ccc(O)c(OC)c3)[C@H]2CO)ccc1O` [LARICIRESINOL], the viability was greater than 90%.

With `N=C(N)NN` [PIMAGEDINE], the viability was greater than 90%.

As to `CC(=O)O[C@@H]1C[C@@H](C)[C@](O)(CCC2=CC(=O)OC2O)[C@@]2(C)CCCC(C)(C)[C@H]12` (some centres undefined) [VITEAGNUSIN I], the viability is greater than 90%.

On to `CC(=O)O[C@H]1CC[C@@]2(C)[C@@H](CC[C@@H](C)[C@]23CCC(=O)O3)C1(C)C` [VITEDOIN B], for which the viability is greater than 90%.

Consider `C=CC(C)(O)CC[C@@]1(C)C2=C([C@H](OC(C)=O)[C@H](OC(C)=O)[C@H]1C)C(C)(C)CCC2` (some centres undefined) [VITETRIFOLIN D], for which the viability was greater than 90%.

On to `CC(=O)O[C@@H]1C[C@@H](C)[C@](O)(CCC2=CC(=O)OC2)[C@@]2(C)CCCC(C)(C)[C@H]12` [VITEXILACTONE], for which the viability is greater than 90%.

Values taken from ChEMBL document CHEMBL2434945, “Anti-inflammatory constituents from the fruits of Vitex rotundifolia” (Bioorg Med Chem Lett, 2013).
